These are literature values, as cited in PMC5913986, “Repurposing and Reformulation of the Antiparasitic Agent Flubendazole for Treatment of Cryptococcal Meningoencephalitis, a Neglected Fungal Disease” (Antimicrobial Agents and Chemotherapy, 2018).

In the data set the target is T1, porcine tubulin (Sus scrofa, UniProt P02554).
T1 construct: purified porcine brain tubulin; purchased Cytoskeleton, Inc., Denver, CO BK011P; host or cells: porcine brain (tissue-purified)
Details: method as in doi:10.2533/chimia.2007.368. Particulars: known tubulin inhibitors; cited from earlier work.

Each structure is given as a SMILES string.

T1 sequence (P02554 whole entry): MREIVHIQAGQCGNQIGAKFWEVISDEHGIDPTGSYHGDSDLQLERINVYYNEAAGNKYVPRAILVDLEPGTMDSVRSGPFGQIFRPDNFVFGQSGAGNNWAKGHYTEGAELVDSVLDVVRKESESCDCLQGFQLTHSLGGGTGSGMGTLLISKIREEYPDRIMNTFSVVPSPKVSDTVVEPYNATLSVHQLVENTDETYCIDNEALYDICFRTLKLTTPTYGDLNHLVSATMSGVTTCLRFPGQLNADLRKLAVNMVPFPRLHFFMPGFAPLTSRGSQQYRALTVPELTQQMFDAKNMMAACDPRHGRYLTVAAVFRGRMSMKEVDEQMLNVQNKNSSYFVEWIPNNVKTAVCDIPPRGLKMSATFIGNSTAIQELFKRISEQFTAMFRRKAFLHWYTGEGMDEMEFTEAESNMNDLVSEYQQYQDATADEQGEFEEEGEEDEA
T1 sequence (P02550 whole entry partner): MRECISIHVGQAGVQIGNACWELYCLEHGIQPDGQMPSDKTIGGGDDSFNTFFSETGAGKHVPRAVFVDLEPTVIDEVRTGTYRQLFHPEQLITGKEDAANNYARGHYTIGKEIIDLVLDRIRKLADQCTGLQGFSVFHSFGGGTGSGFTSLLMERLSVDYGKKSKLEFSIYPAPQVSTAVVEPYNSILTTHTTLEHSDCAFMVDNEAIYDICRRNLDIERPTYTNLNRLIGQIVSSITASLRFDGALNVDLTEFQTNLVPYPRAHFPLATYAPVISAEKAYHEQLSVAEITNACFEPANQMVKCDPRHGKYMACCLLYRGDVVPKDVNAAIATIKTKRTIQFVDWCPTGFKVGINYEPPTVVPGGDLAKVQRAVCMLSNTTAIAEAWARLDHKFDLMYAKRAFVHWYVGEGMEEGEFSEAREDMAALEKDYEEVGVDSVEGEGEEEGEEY

Turning to `CC(=O)O[C@H]1C(=O)[C@@]2(C)[C@H]([C@H](OC(=O)c3ccccc3)[C@]3(O)C[C@H](OC(=O)[C@H](O)[C@@H](NC(=O)c4ccccc4)c4ccccc4)C(C)=C1C3(C)C)[C@]1(OC(C)=O)CO[C@@H]1C[C@@H]2O` [paclitaxel], the IC50 – broadly, the concentration at which inhibition is half-maximal – is 3.9 µM.
In the case of `CC[C@]1(O)C[C@@H]2CN(CCc3c([nH]c4ccccc34)[C@@](C(=O)OC)(c3cc4c(cc3OC)N(C)[C@H]3[C@@](O)(C(=O)OC)[C@H](OC(C)=O)[C@]5(CC)C=CCN6CC[C@]43[C@@H]65)C2)C1` [vinblastine], the IC50 is 5.3 µM.
